{"source": "paper PMC9374744", "about": "“Structural basis for receptor selectivity and inverse agonism in S1P5 receptors” (Nature Communications, 2022)", "molecular_target": "T1, S1P5 (Homo sapiens, UniProt Q9H228, G231K/G234L/INS226[…]/INS240[…]/P227A/P230V/R224A/R225D/R229Q/R239A/S237M/T232D/T236K/T238R)", "T1 construct": "The C-terminus was truncated after Val321; hemagglutinin signal peptide (HA; […]) (N); FLAG-tag (N); Ala-Gly-Arg-Ala linker (N); PreScission cleavage site (C); 10× His tag (C, cleaved yes); made in house; host or cells: Sf9 insect cells (baculovirus, Bac-to-Bac)", "T1 sequence (Q9H228 other isoform, or with tags, fused parts or gaps with the stated changes)": "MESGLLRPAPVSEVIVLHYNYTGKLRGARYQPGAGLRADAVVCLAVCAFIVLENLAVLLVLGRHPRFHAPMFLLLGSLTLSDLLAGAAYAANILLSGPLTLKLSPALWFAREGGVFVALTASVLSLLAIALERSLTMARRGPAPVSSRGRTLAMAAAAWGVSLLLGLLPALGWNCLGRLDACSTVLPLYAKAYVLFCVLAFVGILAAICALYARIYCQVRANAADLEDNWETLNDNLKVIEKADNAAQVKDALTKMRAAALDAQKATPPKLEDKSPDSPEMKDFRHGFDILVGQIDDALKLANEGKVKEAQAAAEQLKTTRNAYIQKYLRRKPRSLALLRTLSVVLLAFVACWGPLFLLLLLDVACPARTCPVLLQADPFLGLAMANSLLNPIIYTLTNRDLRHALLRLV", "assay": "Microscale fluorescent (CPM) thermal stability assay", "type": "binding", "conditions": "CPM fluorescence thermal shift; purified S1P5 crystallization construct", "method": "Cells were thawed and lysed by repetitive washes (Dounce homogenization on ice, and centrifugation at 128,600×g for 30 min at 4 °C) in hypotonic buffer (10 mM HEPES pH 7.5, 20 mM KCl, and 10 mM MgCl2) and high osmotic buffer (10 mM HEPES pH 7.5, 20 mM KCl, 10 mM MgCl2, and 1 M NaCl) with an addition of protease inhibitor cocktail [PIC; 500 µM 4-(2-aminoethyl)benzenesulfonyl fluoride hydrochloride (Gold Biotechnology), 1 µM E-64 (Cayman Chemical), 1 µM leupeptin (Cayman Chemical), 150 nM aprotinin (A.G. Scientific)] with the ratio of 50 μl per 100 ml of lysis buffer. […] Stability and stabilizing effect of the ligand were measured by microscale fluorescent thermal stability assay[55] […]\nMicroscale fluorescent thermal stability assay[55] was conducted using a CPM dye (7-Diethylamino-3-(4-maleimidophenyl)-4-methylcoumarin, Invitrogen) dissolved in DMF at 10 mM. […] 1 µg of the target protein was added to 50 µL of working buffer (25 mM HEPES, 250 mM NaCl, 10%v/v glycerol, 0.05%w/v DDM, 0.01%w/v CHS) with CPM, and the melting curve was recorded on a Rotor-Gene Q real-time PCR cycler (Qiagen) using a temperature ramp from 28 to 98 °С with 2 °С/min rate. The fluorescence signal was measured in the Blue channel (excitation 365 nm, emission 460 nm), and the melting temperature was calculated as the maximum of the fluorescence signal derivative with respect to temperature.", "data": [{"smiles": "O=C(O)CCCN1CCc2cccc(OCCc3cccc4ccccc34)c2CC1", "note": "[ONO-5430608, 4-{6-[2-(1-naphthyl)ethoxy]-1,2,4,5-tetrahydro-3H-3-benzazepin-3-yl} butanoic acid]", "values": [{"measurement": "increase of the thermal stability of S1P5", "result": 19, "unit": "°C"}]}]}
